# Target: T1, human αvβ3 (Homo sapiens, UniProt P05106+P06756)
# T1 construct: purchased Chemicon CC1019
# Assay: αvβ3-vitronectin Assay
# Conditions: inhibition of binding of biotinylated human vitronectin to plate-coated human αvβ3, ELISA, room temperature
# Procedure: The assay is based on the method of Dennis (Dennis, M. S., et al., Proteins 15: […] (1993)). Costar 9018 flat-bottom 96-well ELISA plates were coated overnight at […] with 100 μL/well of 10 μg/mL human fibrinogen (Calbiochem 341578) in 20 mM Tris-HCl pH 7.5, 150 mM NaCl, 2 mM CaCl2, 0.02% NaN3 (TAC buffer), and blocked for 1 hr at 37° C. with 150 μL/well of TAC buffer containing 0.05% Tween 20 and 1% bovine serum albumin (TACTB buffer). After washing 3 times with 200 μL/well of 10 mM Na2 HPO4 pH 7.5, 150 mM NaCl, 0.01% Tween 20 (PBST buffer), controls or test compound (0.027–20.0 μM) were mixed with 40 μg/mL human GPIIbIIIa (Enzyme Research Laboratories) in TACTB buffer, and 100 μL/well of these solutions were incubated for 1 hr at 37° C. The plate was then washed 5 times with PBST buffer, and 100 μL/well of a monoclonal anti-GPIIbIIIa antibody in TACTB buffer (1 μg/mL, Enzyme Research Laboratories MabGP2b3a) was incubated at 37° C. for 1 hr. After washing (5 times with PBST buffer), 100 μL/well of goat anti-mouse IgG conjugated to horseradish peroxidase (Kirkegaard & Perry 14–23–06) was incubated at 37° C. for 1 hr (25 ng/mL in PBST buffer), followed by a 6-fold PBST buffer wash. The plate was developed by adding 100 μL/well of 0.67 mg o-phenylenediamine dihydrochloride per mL of 0.012% H2O2, 22 mM sodium citrate, 50 mM sodium phosphate, pH 5.0 at room temperature. The reaction was stopped with 50 μL/well of 2M H2SO4, and the absorbence at 492 nm was recorded. Percent (%) inhibition was calculated from the average of three separate determinations relative to buffer controls (no test compound added), and a four parameter fit (Marquardt, D. W., J. Soc. Indust. Appl. Math. 11:431–441 (1963)) was used to estimate the half maximal inhibition concentration (IC50).
# The assay was based on the method of Niiya (Niiya, K., et al., Blood 70:475–483 (1987)). Costar 9018 flat-bottom 96-well ELISA plates were coated overnight at room temperature with 100 μL/well of 0.4 μg/mL human αvβ3 (Chemicon CC1019) in TS buffer (20 mM Tris-HCl pH 7.5, 150 mM NaCl, 1 mM CaCl2, 1 mM MgCl2, 1 mM MnCl2). All subsequent steps were performed at room temperature. Plates were blocked for 2 hr with 150 μL/well of TS buffer containing 1% BSA (TSB buffer), and washed 3 times with 200 μL/well of PBST buffer. Controls or test compound (0.0001–20.0 μM) were mixed with 1 μg/mL of human vitronectin (Chemicon CCO80) that had been biotinylated in-house with sulfo-NHS-LC-LC-biotin (Pierce 21338, 20:1 molar ratio), and 100 μL/well of these solutions (in TSB buffer) were incubated for 2 hr. The plate was then washed 5 times with PBST buffer, and 100 μL/well of 0.25 μg/mL NeutrAvidin-horseradish peroxidase conjugate (Pierce 31001) in TSB buffer was incubated for 1 hr. Following a 5-fold PBST buffer wash, the plate was developed and results were calculated as described for the fibrinogen-IIbIIIa assay.
# T1 sequence (P06756 31-889 limits assumed): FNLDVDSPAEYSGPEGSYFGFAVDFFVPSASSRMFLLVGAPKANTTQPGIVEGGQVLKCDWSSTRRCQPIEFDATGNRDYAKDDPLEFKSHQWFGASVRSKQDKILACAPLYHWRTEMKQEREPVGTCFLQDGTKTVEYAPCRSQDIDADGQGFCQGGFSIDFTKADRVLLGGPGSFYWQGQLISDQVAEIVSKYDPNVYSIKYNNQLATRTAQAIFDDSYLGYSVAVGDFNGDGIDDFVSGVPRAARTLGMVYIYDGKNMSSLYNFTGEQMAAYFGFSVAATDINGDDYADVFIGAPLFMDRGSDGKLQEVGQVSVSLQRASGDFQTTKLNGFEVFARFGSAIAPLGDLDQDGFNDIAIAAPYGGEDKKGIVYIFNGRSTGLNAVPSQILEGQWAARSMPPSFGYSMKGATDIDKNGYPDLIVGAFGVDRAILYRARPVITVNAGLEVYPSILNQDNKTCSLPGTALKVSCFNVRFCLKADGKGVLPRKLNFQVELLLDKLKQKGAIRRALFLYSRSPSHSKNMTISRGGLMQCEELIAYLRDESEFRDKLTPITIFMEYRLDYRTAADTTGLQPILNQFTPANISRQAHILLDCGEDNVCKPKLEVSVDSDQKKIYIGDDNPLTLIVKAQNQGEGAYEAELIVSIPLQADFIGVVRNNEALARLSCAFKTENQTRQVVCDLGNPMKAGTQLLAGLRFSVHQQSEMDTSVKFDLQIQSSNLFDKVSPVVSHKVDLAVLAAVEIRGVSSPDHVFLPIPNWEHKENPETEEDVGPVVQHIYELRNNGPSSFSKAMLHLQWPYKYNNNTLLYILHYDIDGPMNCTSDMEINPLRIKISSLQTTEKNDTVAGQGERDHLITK
# T1 sequence (P06756 891-1048 limits assumed): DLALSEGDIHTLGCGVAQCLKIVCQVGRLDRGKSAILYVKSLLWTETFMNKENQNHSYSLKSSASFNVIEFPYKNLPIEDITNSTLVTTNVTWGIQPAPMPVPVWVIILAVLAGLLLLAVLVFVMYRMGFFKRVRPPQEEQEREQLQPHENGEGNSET
# T1 sequence (P05106 27-788): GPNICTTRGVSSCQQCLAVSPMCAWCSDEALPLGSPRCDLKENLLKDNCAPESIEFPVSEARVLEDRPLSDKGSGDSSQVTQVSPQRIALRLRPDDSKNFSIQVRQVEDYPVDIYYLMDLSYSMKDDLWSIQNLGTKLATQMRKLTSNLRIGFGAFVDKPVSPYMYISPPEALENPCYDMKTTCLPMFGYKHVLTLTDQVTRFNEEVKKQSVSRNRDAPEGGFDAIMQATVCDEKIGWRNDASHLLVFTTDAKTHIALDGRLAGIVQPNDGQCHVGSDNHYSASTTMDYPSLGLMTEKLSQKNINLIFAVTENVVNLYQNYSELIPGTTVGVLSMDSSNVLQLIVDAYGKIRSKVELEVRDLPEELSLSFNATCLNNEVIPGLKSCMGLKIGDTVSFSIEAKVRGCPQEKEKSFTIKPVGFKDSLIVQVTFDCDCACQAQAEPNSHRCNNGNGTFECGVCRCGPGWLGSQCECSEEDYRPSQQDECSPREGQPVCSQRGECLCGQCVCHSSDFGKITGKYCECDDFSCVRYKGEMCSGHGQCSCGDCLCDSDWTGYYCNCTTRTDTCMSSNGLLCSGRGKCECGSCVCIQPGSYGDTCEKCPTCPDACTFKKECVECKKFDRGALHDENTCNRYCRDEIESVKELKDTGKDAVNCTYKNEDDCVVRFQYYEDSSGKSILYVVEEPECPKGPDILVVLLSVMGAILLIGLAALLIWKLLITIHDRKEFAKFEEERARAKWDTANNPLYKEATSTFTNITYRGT
row,IC50,Molecule
1,0.67 µM,O=C(O)[C@@H]1C[C@H]1n1ccc2cc(OCCCNc3ccccn3)ccc21 (relative stereo) [Example 4]
2,0.05 µM,"CNc1cccc(CCOc2ccc3c(ccn3CCC(=O)O)c2)n1 [Example 5, 3-(5-{2-[6-(Methylamino)-2-pyridyl]ethoxy}indolyl)propanoic acid]"
3,0.5 µM,"CC(Cn1ccc2cc(OCCCNc3ccccn3)ccc21)C(=O)O (stereo not shown) [Example 7, 2-Methyl-3-{5-[3-(2-pyridylamino)propoxy]indolyl}propanoic acid]"
4,0.004 µM,"CCCC(CC(=O)O)n1ccc2cc(OCCc3ccc4c(n3)NCCC4)ccc21 (stereo not shown) [Example 14, 3-{5-[2-(5,6,7,8-Tetrahydro-[1,8]naphthyridin-2-yl)-ethoxy]-indol-1-yl}-hexanoic acid]"
5,0.006 µM,"O=C(O)CCn1ccc2cc(OCCc3ccc4c(n3)NCCC4)ccc21 [Example 15, 3-{5-[2-(5,6,7,8-Tetrahydro-[1,8]naphthyridin-2-yl)-ethoxy]-indol-1-yl}-propionic acid]"
6,0.00024 µM,"O=C(O)CC(c1cccnc1)n1ccc2cc(OCCc3ccc4c(n3)NCCC4)ccc21 (stereo not shown) [Example 38, 3-Pyridin-3-yl-3-{5-[2-(5,6,7,8-tetrahydro-[1,8]naphthyridin-2-yl)-ethoxy]-indol-1-yl}-propionic acid]"

row,Molecule,IC50
1,3-{5-[3-(2-Pyridylamino)propoxy]indolyl}propanoic acid ammonium salt [Example 1],0.5 µM
